Experimental data: ChEMBL document CHEMBL1667816, “Preparation and in vitro screening of symmetrical bis-isoquinolinium cholinesterase inhibitors bearing various connecting linkage--implications for early Myasthenia gravis treatment” (Eur J Med Chem, 2011)

Experiments:
[1] = target: Cholinesterase (Homo sapiens, UniProt P06276); assay: Inhibition of human plasmatic BChE by Lineweaver-Burk plot analysis; type: cell-free, Plasma
[2] = target: T1, Acetylcholinesterase (Homo sapiens, UniProt P22303); assay: Inhibition of human recombinant AChE by Lineweaver-Burk plot analysis
[3] = target: T1, Acetylcholinesterase
Description: Dissociation constant for enzyme-inhibitor-substrate complex of human recombinant AChE by Lineweaver-Burk plot analysis

[4] = target: T1, Acetylcholinesterase; remark: listed apart in the source
Description: Dissociation constant for enzyme-inhibitor complex of human recombinant AChE by Lineweaver-Burk plot analysis

Sequence of Cholinesterase (P06276 whole entry): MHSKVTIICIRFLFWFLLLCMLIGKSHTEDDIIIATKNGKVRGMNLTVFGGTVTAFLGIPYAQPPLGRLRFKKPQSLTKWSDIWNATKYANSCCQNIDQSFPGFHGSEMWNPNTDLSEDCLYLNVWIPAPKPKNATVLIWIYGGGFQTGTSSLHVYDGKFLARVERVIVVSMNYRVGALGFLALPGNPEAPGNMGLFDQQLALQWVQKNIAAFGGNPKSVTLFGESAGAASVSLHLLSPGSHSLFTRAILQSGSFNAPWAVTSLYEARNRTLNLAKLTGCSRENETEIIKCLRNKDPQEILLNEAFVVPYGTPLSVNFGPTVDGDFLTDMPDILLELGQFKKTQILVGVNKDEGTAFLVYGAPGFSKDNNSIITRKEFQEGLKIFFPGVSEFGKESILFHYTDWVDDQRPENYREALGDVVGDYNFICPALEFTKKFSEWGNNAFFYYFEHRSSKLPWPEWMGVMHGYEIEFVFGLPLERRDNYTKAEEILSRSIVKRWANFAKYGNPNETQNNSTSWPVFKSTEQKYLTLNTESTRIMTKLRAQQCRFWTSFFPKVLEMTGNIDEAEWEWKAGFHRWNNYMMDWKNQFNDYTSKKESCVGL
T1 sequence (P22303 whole entry): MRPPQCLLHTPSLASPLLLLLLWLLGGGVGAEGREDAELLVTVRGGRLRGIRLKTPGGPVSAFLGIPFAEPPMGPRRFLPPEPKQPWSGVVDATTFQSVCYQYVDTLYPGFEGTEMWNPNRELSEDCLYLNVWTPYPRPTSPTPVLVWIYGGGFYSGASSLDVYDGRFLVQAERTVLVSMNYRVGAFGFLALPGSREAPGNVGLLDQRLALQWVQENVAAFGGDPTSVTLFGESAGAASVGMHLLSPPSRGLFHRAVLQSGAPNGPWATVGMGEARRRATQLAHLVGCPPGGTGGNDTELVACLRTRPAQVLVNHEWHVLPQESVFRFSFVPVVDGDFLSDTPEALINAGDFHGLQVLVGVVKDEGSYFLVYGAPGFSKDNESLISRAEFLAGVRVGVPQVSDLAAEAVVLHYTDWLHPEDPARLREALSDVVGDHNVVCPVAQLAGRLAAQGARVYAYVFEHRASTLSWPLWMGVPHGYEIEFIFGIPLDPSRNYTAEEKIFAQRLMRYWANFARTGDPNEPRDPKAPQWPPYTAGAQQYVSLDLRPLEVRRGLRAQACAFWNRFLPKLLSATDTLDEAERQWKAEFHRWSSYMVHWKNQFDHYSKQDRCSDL

SMILES	IC50 [1]	IC50 [2]	Ki [3]	Ki [4]
CC[N+](C)(C)c1cccc(O)c1 [EDROPHONIUM CHLORIDE]	1370 µM			
c1ccc2c[n+](CCC[n+]3ccc4ccccc4c3)ccc2c1	2600 µM	446 µM		
c1ccc2c[n+](CCCCCCCCC[n+]3ccc4ccccc4c3)ccc2c1	0.6 µM	0.04 µM		
c1ccc(C[n+]2ccc3ccccc3c2)c(C[n+]2ccc3ccccc3c2)c1	0.6 µM	250 µM		
C(=C\C[n+]1ccc2ccccc2c1)/C[n+]1ccc2ccccc2c1	64 µM	7 µM		
c1ccc2c[n+](CCCCCCCCCC[n+]3ccc4ccccc4c3)ccc2c1	1.6 µM	0.05 µM		
c1ccc2c[n+](C[n+]3ccc4ccccc4c3)ccc2c1	1400 µM	654 µM		
c1ccc2c[n+](CCCCCCC[n+]3ccc4ccccc4c3)ccc2c1	3 µM	0.5 µM		
C(=C/C[n+]1ccc2ccccc2c1)/C[n+]1ccc2ccccc2c1	25 µM	17 µM		
c1ccc2c[n+](CCCC[n+]3ccc4ccccc4c3)ccc2c1	40 µM	36 µM		
c1ccc2c[n+](CCOCC[n+]3ccc4ccccc4c3)ccc2c1	51 µM	1310 µM		
c1ccc2c[n+](COC[n+]3ccc4ccccc4c3)ccc2c1	154 µM	2 µM		
c1ccc2c[n+](CCCCCC[n+]3ccc4ccccc4c3)ccc2c1	2 µM	0.3 µM		
c1ccc2c[n+](CCCCCCCCCCC[n+]3ccc4ccccc4c3)ccc2c1	9 µM	0.1 µM		
c1ccc2c[n+](Cc3ccc(C[n+]4ccc5ccccc5c4)cc3)ccc2c1	840 µM	12 µM		
c1cc(C[n+]2ccc3ccccc3c2)cc(C[n+]2ccc3ccccc3c2)c1	1 µM	8 µM		
c1ccc2c[n+](CCCCC[n+]3ccc4ccccc4c3)ccc2c1	0.7 µM	13 µM		
C[N+](C)(CCNC(=O)C(=O)NCC[N+](C)(C)Cc1ccccc1Cl)Cc1ccccc1Cl [AMBENONIUM DICHLORIDE]	6.82 µM			
c1ccc2c[n+](CCCCCCCCCCCC[n+]3ccc4ccccc4c3)ccc2c1	0.1 µM	137 µM		
c1ccc2c[n+](Cc3ccc4ccc(C[n+]5ccc6ccccc6c5)cc4c3)ccc2c1	4 µM	0.3 µM	0.75 µM	1.25 µM
